{"source": "patent US20240358692A1", "about": "“TREATMENT OF SCLERODERMA” (Aisa Pharma, Inc., priority 2023, published 2024)", "system": "participants with SSc-RP", "experiment": "Average severity of weekly RP attacks (VAS 0-10)", "assay_type": "in vivo, human", "details": "Tadalafil 5 mg; for Average Severity of Weekly Symptomatic RP Attacks, Change from Baseline, Mean / Average Severity of Weekly Symptomatic RP Attacks, Change from Baseline, Median / Average Severity of Weekly Symptomatic RP Attacks, Percent Change from Baseline, Mean / Average Severity of Weekly Symptomatic RP Attacks, Percent Change from Baseline, Median: 2nd Baseline RCS subgroup, ITT Part A, last 7 days of dosing period", "source_text": "The absolute change in average severity of weekly RP attacks (VAS 0-10 cm scale) from baseline to the end of each Dosing Period was and will be a secondary outcome variable. The sponsor-developed participant-informed diary will be used to record data. Average severity of weekly RP attacks is defined as the total severity scores of RP attacks divided by total number of RP attacks within the last 7 days of each dosing period. Total severity scores of RP attacks during the last 7 days of screening period divided by the total number of RP attacks will be used as baseline for the analysis of all periods. The variable will be calculated similar to frequency data as before.", "key": {"[1]": {"details": "all attacks, by Baseline RCS: second subgroup of Table C-7, ITT Part A"}}, "data": [{"smiles": "CN1CC(=O)N2[C@H](c3ccc4c(c3)OCO4)c3[nH]c4ccccc4c3C[C@@H]2C1=O", "note": "[Tadalafil]", "values": [{"measurement": "Average Severity of Weekly Symptomatic RP Attacks, Change from Baseline, Mean", "result": "−0.60"}, {"measurement": "Average Severity of Weekly Symptomatic RP Attacks, Change from Baseline, Median", "result": "−0.60"}, {"measurement": "Average Severity of Weekly Symptomatic RP Attacks, Percent Change from Baseline, Mean", "result": "−10.43", "unit": "%"}, {"measurement": "Average Severity of Weekly Symptomatic RP Attacks, Percent Change from Baseline, Median", "result": "−10.43", "unit": "%"}, {"measurement": "Average Severity of Weekly Symptomatic RP Attacks, Change from Baseline, Mean", "setting": "Excluding Outliers", "result": "−1.32"}, {"measurement": "Average Severity of Weekly Symptomatic RP Attacks, Change from Baseline, Median", "setting": "Excluding Outliers", "result": "−1.32"}, {"measurement": "Average Severity of Weekly Symptomatic RP Attacks, Percent Change from Baseline, Mean", "setting": "Excluding Outliers", "result": "−22.01", "unit": "%"}, {"measurement": "Average Severity of Weekly Symptomatic RP Attacks, Percent Change from Baseline, Median", "setting": "Excluding Outliers", "result": "−22.01", "unit": "%"}, {"measurement": "Average Severity (0-10) of weekly RP attacks, Mean", "setting": "[1]", "result": 7.02}, {"measurement": "Average Severity (0-10) of weekly RP attacks, Median", "setting": "[1]", "result": 7.02}, {"measurement": "Average severity of weekly RP attacks, Change from Baseline, Mean", "setting": "[1]", "result": "−0.47"}, {"measurement": "Average severity of weekly RP attacks, Change from Baseline, Median", "setting": "[1]", "result": "−0.47"}, {"measurement": "Average severity of weekly RP attacks, Percent Change from Baseline, Mean", "setting": "[1]", "result": "−8.97", "unit": "%"}, {"measurement": "Average severity of weekly RP attacks, Percent Change from Baseline, Median", "setting": "[1]", "result": "−8.97", "unit": "%"}]}]}
